Data on 6 molecules can be found in patent publication US20260176320A1, “MODULATORS OF G-PROTEIN COUPLED RECEPTORS” (priority 2018, published 2026).

The structures appear in SMILES notation. Where two headings read alike, the source gives them in different places. Numbered stars: 1 amine (or outer) side, 2 acyl side, 3 side chain; on linkers, the order of the positions; unused ones are H or OH. Square brackets hold non-standard residues; d marks the D form. Side chains are listed from the residue outwards. Peptide text beside a SMILES is read from it. * marks the point of attachment. γGlu = O=C(O)[C@H](CCC(=O)[*:2])N[*:1]; X2 = O=C(CSCC(=O)*)NCCN1C(=O)CSC1=O; Palmitoyl = CCCCCCCCCCCCCCCC(=O)*; Aib = CC(C)(N)C(=O)O A value given as a limit tells only on which side of the number the result lay.

As a reminder, the Emax is the size of the effect at its maximum, as opposed to the concentration needed.

One test concerns the target T1, GIP-R (Homo sapiens, UniProt P48546).
T1 sequence (P48546 22-466): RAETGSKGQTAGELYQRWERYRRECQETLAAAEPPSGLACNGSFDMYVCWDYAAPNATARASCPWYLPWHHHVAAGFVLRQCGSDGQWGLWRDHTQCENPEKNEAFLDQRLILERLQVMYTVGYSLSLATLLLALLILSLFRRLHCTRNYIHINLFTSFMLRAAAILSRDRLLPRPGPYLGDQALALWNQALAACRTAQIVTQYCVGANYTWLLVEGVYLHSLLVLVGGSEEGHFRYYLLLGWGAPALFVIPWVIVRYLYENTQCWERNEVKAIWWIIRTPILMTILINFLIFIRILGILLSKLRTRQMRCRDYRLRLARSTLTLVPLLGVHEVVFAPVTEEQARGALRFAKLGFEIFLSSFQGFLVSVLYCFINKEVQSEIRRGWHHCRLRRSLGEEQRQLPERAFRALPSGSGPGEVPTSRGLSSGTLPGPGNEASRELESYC
The test is described as follows: HitHunter cAMP assay (GIP-R). The test is classed as cell-based. The conditions noted are these: cAMP; for Emax: read-out: (Emax) GIP-R. The method, boiled down: (§1)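 Luminescent readout of cAMP by enzyme-fragment immunocompetition gave agonist concentration-response data. Cells (10,000/well) sat in HBSS buffer containing IBMX 625 μM, HEPES 10 mM and BSA 0.2%, exposed to agonist for 30 min at room temperature.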
In general terms: cAMP levels reflect the balance of adenylyl cyclase and phosphodiesterase activity.

For the next test, the target named is GLP-1R (Homo sapiens, UniProt P43220). The test is described as follows: HitHunter cAMP assay (GLP-1R). The test is classed as cell-based. To be noted: cAMP; for Emax: read-out: (Emax) GLP-1R. In short, it runs like this: as §1
Chain of GLP-1R (P43220 24-463): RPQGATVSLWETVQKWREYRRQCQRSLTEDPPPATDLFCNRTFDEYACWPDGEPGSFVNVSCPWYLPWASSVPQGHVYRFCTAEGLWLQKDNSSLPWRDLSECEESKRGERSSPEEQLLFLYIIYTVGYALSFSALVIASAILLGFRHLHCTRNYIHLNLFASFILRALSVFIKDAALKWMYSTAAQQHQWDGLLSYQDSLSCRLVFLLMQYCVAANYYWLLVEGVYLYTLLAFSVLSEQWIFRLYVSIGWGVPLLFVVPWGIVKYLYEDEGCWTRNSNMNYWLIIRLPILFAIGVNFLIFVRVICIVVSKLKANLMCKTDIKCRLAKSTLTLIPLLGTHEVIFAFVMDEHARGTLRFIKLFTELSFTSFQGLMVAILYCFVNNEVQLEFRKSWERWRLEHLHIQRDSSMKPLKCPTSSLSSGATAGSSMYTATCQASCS

Turning to `CCCCCCCCCCCCCCCC(=O)N[C@@H](CCC(=O)NCCCC[C@H](NC(=O)[C@H](CO)NC(=O)[C@@H]1CCCN1C(=O)[C@@H]1CCCN1C(=O)[C@@H]1CCCN1C(=O)[C@H](C)NC(=O)CNC(=O)[C@H](CO)NC(=O)[C@H](CO)NC(=O)[C@@H]1CCCN1C(=O)CNC(=O)CNC(=O)[C@H](C)NC(=O)[C@H](CC(C)C)NC(=O)[C@H](CC(C)C)NC(=O)[C@H](Cc1c[nH]c2ccccc12)NC(=O)[C@H](CC(N)=O)NC(=O)[C@@H](NC(=O)[C@H](Cc1ccccc1)NC(=O)[C@H](CCC(=O)O)NC(=O)C(C)(C)NC(=O)[C@H](C)NC(=O)[C@H](C)NC(=O)[C@H](CCC(N)=O)NC(=O)[C@H](CCCCN)NC(=O)[C@H](CC(=O)O)NC(=O)[C@H](CC(C)C)NC(=O)[C@H](Cc1ccc(O)cc1)NC(=O)[C@@H](NC(=O)[C@H](CO)NC(=O)[C@H](Cc1ccc(O)cc1)NC(=O)[C@H](CC(=O)O)NC(=O)[C@H](CO)NC(=O)[C@@H](NC(=O)[C@H](Cc1ccccc1)NC(=O)[C@@H](NC(=O)CNC(=O)[C@H](CCC(=O)O)NC(=O)CSCC(=O)NCCN1C(=O)c2cc3ccccc3cc2C1=O)[C@@H](C)O)[C@@H](C)O)[C@@H](C)CC)C(C)C)C(N)=O)C(=O)O` [Compound 249], the EC50 at GIP-R (EC50 GIP-R/nM, Table 3A) was in the range of 1 to 10 nM; at GLP-1R (EC50 GLP-1R/nM, Table 3A), 10 to 100 nM. The Emax on GIP-R (Table 3A) worked out at 105%; on GLP-1R (Table 3A), 101%.
Turning to `CCCCCCCCCCCCCCCC(=O)N[C@@H](CCC(=O)NCCCC[C@H](NC(=O)[C@H](CO)NC(=O)[C@@H]1CCCN1C(=O)[C@@H]1CCCN1C(=O)[C@@H]1CCCN1C(=O)[C@H](C)NC(=O)CNC(=O)[C@H](CO)NC(=O)[C@H](CO)NC(=O)[C@@H]1CCCN1C(=O)CNC(=O)CNC(=O)[C@H](C)NC(=O)[C@H](CC(C)C)NC(=O)[C@H](CC(C)C)NC(=O)[C@H](Cc1c[nH]c2ccccc12)NC(=O)[C@H](CC(N)=O)NC(=O)[C@@H](NC(=O)[C@H](Cc1ccccc1)NC(=O)[C@H](CCC(=O)O)NC(=O)C(C)(C)NC(=O)[C@H](C)NC(=O)[C@H](C)NC(=O)[C@H](CCC(N)=O)NC(=O)[C@H](CCCCN)NC(=O)[C@H](CC(=O)O)NC(=O)[C@H](CC(C)C)NC(=O)[C@H](Cc1ccc(O)cc1)NC(=O)[C@@H](NC(=O)[C@H](CO)NC(=O)[C@H](Cc1ccc(O)cc1)NC(=O)[C@H](CC(=O)O)NC(=O)[C@H](CO)NC(=O)[C@@H](NC(=O)[C@H](Cc1ccccc1)NC(=O)[C@@H](NC(=O)CNC(=O)[C@H](CCC(=O)O)NC(=O)CSCC(=O)NCCN1C(=O)CC2(CCCC2)C1=O)[C@@H](C)O)[C@@H](C)O)[C@@H](C)CC)C(C)C)C(N)=O)C(=O)O` [Compound 102], the EC50 at GIP-R (EC50 GIP-R/nM, Table 3) fell in the range of 10 to 100 nM; at GIP-R (EC50 GIP-R/nM, Table 3A), 10 to 100 nM; at GLP-1R (EC50 GLP-1R/nM, Table 3) it was 1 to 10 nM; at GLP-1R (EC50 GLP-1R/nM, Table 3A), 1 to 10 nM. In addition, the Emax at GIP-R (Table 3) is 34%; at GIP-R (Table 3A) it was 34%; on GLP-1R (Table 3) it was 104%; at GLP-1R (Table 3A), 104%.
As for `CC[C@H](C)[C@H](NC(=O)[C@H](CO)NC(=O)[C@H](Cc1ccc(O)cc1)NC(=O)[C@H](CC(=O)O)NC(=O)[C@H](CO)NC(=O)[C@@H](NC(=O)[C@H](Cc1ccccc1)NC(=O)[C@@H](NC(=O)CNC(=O)[C@H](CCC(=O)O)NC(=O)CSCC(=O)NCCN1C(=O)[C@H]2C[C@H]2C1=O)[C@@H](C)O)[C@@H](C)O)C(=O)N[C@@H](Cc1ccc(O)cc1)C(=O)N[C@@H](CC(C)C)C(=O)N[C@@H](CC(=O)O)C(=O)N[C@@H](CCCCN)C(=O)N[C@@H](CCC(N)=O)C(=O)N[C@@H](C)C(=O)N[C@@H](C)C(=O)NC(C)(C)C(=O)N[C@@H](CCC(=O)O)C(=O)N[C@@H](Cc1ccccc1)C(=O)N[C@H](C(=O)N[C@@H](CC(N)=O)C(=O)N[C@@H](Cc1c[nH]c2ccccc12)C(=O)N[C@@H](CC(C)C)C(=O)N[C@@H](CC(C)C)C(=O)N[C@@H](C)C(=O)NCC(=O)NCC(=O)N1CCC[C@H]1C(=O)N[C@@H](CO)C(=O)N[C@@H](CO)C(=O)NCC(=O)N[C@@H](C)C(=O)N1CCC[C@H]1C(=O)N1CCC[C@H]1C(=O)N1CCC[C@H]1C(=O)N[C@@H](CO)C(=O)N[C@@H](CCCCN)C(N)=O)C(C)C` [Compound 109], the EC50 at GIP-R (EC50 GIP-R/nM, Table 3) lay within 10 to 100 nM; at GIP-R (EC50 GIP-R/nM, Table 3A) it was 10 to 100 nM; on GLP-1R (EC50 GLP-1R/nM, Table 3), 1 to 10 nM; at GLP-1R (EC50 GLP-1R/nM, Table 3A) it was 1 to 10 nM. The Emax at GIP-R (Table 3) stood at 36%; on GIP-R (Table 3A) it was 36%; on GLP-1R (Table 3), 101%; at GLP-1R (Table 3A), 101%.
Turning to `CC[C@H](C)[C@H](NC(=O)[C@H](CO)NC(=O)[C@H](Cc1ccc(O)cc1)NC(=O)[C@H](CC(=O)O)NC(=O)[C@H](CO)NC(=O)[C@@H](NC(=O)[C@H](Cc1ccccc1)NC(=O)[C@@H](NC(=O)CNC(=O)[C@H](CCC(=O)O)NC(=O)CC(=O)NCCN1C(=O)c2ccc(C)cc2C1=O)[C@@H](C)O)[C@@H](C)O)C(=O)N[C@@H](Cc1ccc(O)cc1)C(=O)N[C@@H](CC(C)C)C(=O)N[C@@H](CC(=O)O)C(=O)N[C@@H](CCCCN)C(=O)N[C@@H](CCC(N)=O)C(=O)N[C@@H](C)C(=O)N[C@@H](C)C(=O)NC(C)(C)C(=O)N[C@@H](CCC(=O)O)C(=O)N[C@@H](Cc1ccccc1)C(=O)N[C@H](C(=O)N[C@@H](CC(N)=O)C(=O)N[C@@H](Cc1c[nH]c2ccccc12)C(=O)N[C@@H](CC(C)C)C(=O)N[C@@H](CC(C)C)C(=O)N[C@@H](C)C(=O)NCC(=O)NCC(=O)N1CCC[C@H]1C(=O)N[C@@H](CO)C(=O)N[C@@H](CO)C(=O)NCC(=O)N[C@@H](C)C(=O)N1CCC[C@H]1C(=O)N1CCC[C@H]1C(=O)N1CCC[C@H]1C(=O)N[C@@H](CO)C(=O)N[C@@H](CCCCN)C(N)=O)C(C)C` [Compound 126], the EC50 on GIP-R (EC50 GIP-R/nM, Table 3) lay in the range of 10 to 100 nM; on GIP-R (EC50 GIP-R/nM, Table 3A) it was 10 to 100 nM; at GLP-1R (EC50 GLP-1R/nM, Table 3), 10 to 100 nM; on GLP-1R (EC50 GLP-1R/nM, Table 3A) it was 10 to 100 nM. The Emax on GIP-R (Table 3) was 42 to 51%; on GIP-R (Table 3A), 42 to 51%; on GLP-1R (Table 3) it was 84%; on GLP-1R (Table 3A), 84%.
On to `CC[C@H](C)[C@H](NC(=O)[C@H](CO)NC(=O)[C@H](Cc1ccc(O)cc1)NC(=O)[C@H](CC(=O)O)NC(=O)[C@H](CO)NC(=O)[C@@H](NC(=O)[C@H](Cc1ccccc1)NC(=O)[C@@H](NC(=O)CNC(=O)[C@H](CCC(=O)O)NC(=O)C1(C(=O)NCCN2C(=O)CSC2=O)Cc2ccccc2C1)[C@@H](C)O)[C@@H](C)O)C(=O)N[C@@H](Cc1ccc(O)cc1)C(=O)N[C@@H](CC(C)C)C(=O)N[C@@H](CC(=O)O)C(=O)N[C@@H](CCCCN)C(=O)N[C@@H](CCC(N)=O)C(=O)N[C@@H](C)C(=O)N[C@@H](C)C(=O)NC(C)(C)C(=O)N[C@@H](CCC(=O)O)C(=O)N[C@@H](Cc1ccccc1)C(=O)N[C@H](C(=O)N[C@@H](CC(N)=O)C(=O)N[C@@H](Cc1c[nH]c2ccccc12)C(=O)N[C@@H](CC(C)C)C(=O)N[C@@H](CC(C)C)C(=O)N[C@@H](C)C(=O)NCC(=O)NCC(=O)N1CCC[C@H]1C(=O)N[C@@H](CO)C(=O)N[C@@H](CO)C(=O)NCC(=O)N[C@@H](C)C(=O)N1CCC[C@H]1C(=O)N1CCC[C@H]1C(=O)N1CCC[C@H]1C(=O)N[C@@H](CO)C(=O)N[C@@H](CCCCN)C(N)=O)C(C)C` [Compound 124], for which the EC50 is greater than 1000 nM at GIP-R (EC50 GIP-R/nM, Table 3); greater than 1000 nM on GIP-R (read-out: EC50 GIP-R/nM, Table 3A); 10 to 100 nM at GLP-1R (EC50 GLP-1R/nM, Table 3); 10 to 100 nM at GLP-1R (EC50 GLP-1R/nM, Table 3A). The Emax at 1 µM on GIP-R (read-out: (Emax) GIP-R at 1 μM, Table 3, at 1 μM) was 10%. The Emax on GLP-1R (Table 3) and at GLP-1R (Table 3A) was 73% throughout.
`CCCCCCCCCCCCCCCC(=O)N[C@@H](CCC(=O)NCCCC[C@H](NC(=O)[C@@H](NC(=O)[C@H](Cc1ccccc1)NC(=O)[C@H](CCC(=O)O)NC(=O)C(C)(C)NC(=O)[C@H](C)NC(=O)[C@H](C)NC(=O)[C@H](CCC(N)=O)NC(=O)[C@H](CCCCN)NC(=O)[C@H](CC(=O)O)NC(=O)[C@H](CC(C)C)NC(=O)[C@H](Cc1ccc(O)cc1)NC(=O)[C@@H](NC(=O)[C@H](CO)NC(=O)[C@H](Cc1ccc(O)cc1)NC(=O)[C@H](CC(=O)O)NC(=O)[C@H](CO)NC(=O)[C@@H](NC(=O)[C@H](Cc1ccccc1)NC(=O)[C@@H](NC(=O)CNC(=O)[C@H](CCC(=O)O)NC(=O)CSCC(=O)NCCN1C(=O)CSC1=O)[C@@H](C)O)[C@@H](C)O)[C@@H](C)CC)C(C)C)C(=O)N[C@@H](Cc1c[nH]c2ccccc12)C(=O)N[C@@H](CC(C)C)C(=O)N[C@@H](CC(C)C)C(=O)N[C@@H](C)C(=O)NCC(=O)NCC(=O)N1CCC[C@H]1C(=O)N[C@@H](CO)C(=O)N[C@@H](CO)C(=O)NCC(=O)N[C@@H](C)C(=O)N1CCC[C@H]1C(=O)N1CCC[C@H]1C(=O)N1CCC[C@H]1C(=O)N[C@@H](CO)C(=O)N[C@@H](CCCCN)C(N)=O)C(=O)O` [Compound 197] (X2-EGTFTSDYSIYLDKQAA[Aib]EFVK([γGlu-Palmitoyl])WLLAGGPSSGAPPPSK-NH2): the Emax on GIP-R (Table 3A) amounted to 20%; at GLP-1R (Table 3A), 95%. Further, the EC50 lay in the range of 100 to 1000 nM on GIP-R (Table 3A, read-out: EC50 GIP-R/nM) and 10 to 100 nM on GLP-1R (Table 3A, read-out: EC50 GLP-1R/nM).
